According to US7456167B2, “Cyclopropyl fused indolobenzazepine HCV NS5B inhibitors” (Bristol-Myers Squibb Company, priority 2006, dated 2008):
pEC50, pIC50: −log10 of the molar value. Read-outs that look alike come from different tables or passages of the source.

Key:
[1] = biological target: T1, HCV NS5B RdRp genotype 1b (Hepatitis C virus genotype 1b, UniProt Q9WMX2); assay: Modified HCV NS5B RdRp enzyme assay (preincubation protocol); type: biochemical; conditions: HCV NS5B RdRp genotype 1b; preincubation protocol; read-out: IC50
T1 construct: The protein was expressed with an 18 amino acid C-terminal truncation to enhance the solubility; made in house; host or cells: E. coli BL21(DE3)
Procedure: HCV NS5B RdRp cloning, expression, and purification. The cDNA encoding the NS5B protein of HCV, genotype 1b, was cloned into the pET21a expression vector. The protein was expressed with an 18 amino acid C-terminal truncation to enhance the solubility. The E. coli competent cell line BL21(DE3) was used for expression of the protein. Cultures were grown at 37° C. for ˜4 hours until the cultures reached an optical density of 2.0 at 600 nm. The cultures were cooled to 20° C. and induced with 1 mM IPTG. Fresh ampicillin was added to a final concentration of 50 μg/ml and the cells were grown overnight at 20° C.
Cell pellets (3 L) were lysed for purification to yield 15-24 mgs of purified NS5B. The lysis buffer consisted of 20 mM Tris-HCl, pH 7.4, 500 mM NaCl, 0.5% triton X-100, 1 mM DTT, 1 mM EDTA, 20% glycerol, 0.5 mg/ml lysozyme, 10 mM MgCl2, 15 ug/ml deoxyribonuclease I, and Complete TM protease inhibitor tablets (Roche). After addition of the lysis buffer, frozen cell pellets were resuspended using a tissue homogenizer. To reduce the viscosity of the sample, aliquots of the lysate were sonicated on ice using a microtip attached to a Branson sonicator. The sonicated lysate was centrifuged at 100,000×g for 1 hr at 4° C. and filtered through a 0.2 μm filter unit (Corning).
The protein was purified using three sequential chromatography steps: Heparin sepharose CL-6B, polyU sepharose 4B, and Hitrap SP sepharose (Pharmacia). The chromatography buffers were identical to the lysis buffer but contained no lysozyme, deoxyribonuclease I, MgCl2 or protease inhibitor and the NaCl concentration of the buffer was adjusted according to the requirements for charging the protein onto the column. Each column was eluted with a NaCl gradient which varied in length from 5-50 column volumes depending on the column type. After the final chromatography step, the resulting purity of the enzyme is >90% based on SDS-PAGE analysis. The enzyme was aliquoted and stored at −80° C.
Standard HCV NS5B RdRp enzyme assay. HCV RdRp genotype 1b assays were run in a final volume of 60 μl in 96 well plates (Costar 3912). The assay buffer is composed of 20 mM Hepes, pH 7.5, 2.5 mM KCl, 2.5 mM MgCl2, 1 mM DTT, 1.6 U RNAse inhibitor (Promega N2515), 0.1 mg/ml BSA (Promega R3961), and 2% glycerol. All compounds were serially diluted (3-fold) in DMSO and diluted further in water such that the final concentration of DMSO in the assay was 2%. HCV RdRp genotype 1b enzyme was used at a final concentration of 28 nM. A polyA template was used at 6 nM, and a biotinylated oligo-dT12 primer was used at 180 nM final concentration. Template was obtained commercially (Amersham 27-4110). Biotinylated primer was prepared by Sigma Genosys. 3H-UTP was used at 0.6 μCi (0.29 μM total UTP). Reactions were initiated by the addition of enzyme, incubated at 30° C. for 60 min, and stopped by adding 25 μl of 50 mM EDTA containing SPA beads (4 μg/μl, Amersham RPNQ 0007). Plates were read on a Packard Top Count NXT after >1 hr incubation at room temperature.
Modified HCV NS5B RdRp enzyme assay. A modified enzyme assay was performed essentially as described for the standard enzyme assay except for the following: The biotinylated oligo dT12 primer was precaptured on streptavidin-coated SPA beads by mixing primer and beads in assay buffer and incubating at room temperature for one hour. Unbound primer was removed after centrifugation. The primer-bound beads were resuspended in 20 mM Hepes buffer, pH 7.5 and used in the assay at final concentrations of 20 nM primer and 0.67 μg/μl beads. Order of addition in the assay: enzyme (14 nM) was added to diluted compound followed by the addition of a mixture of template (0.2 nM), 3H-UTP (0.6 μCi, 0.29 μM), and primer-bound beads, to initiate the reaction; concentrations given are final. Reactions were allowed to proceed for 4 hours at 30° C.
IC50 values for compounds were determined using seven different [I]. […]

HCV replicon cells = assay: HCV replicon FRET assay; type: cell-based; conditions: HCV replicon cells, FRET assay, read-out: EC50
Excerpt: FRET Assay Preparation. To perform the HCV FRET screening assay, 96-well cell culture plates were used. The FRET peptide (Anaspec, Inc.) (Taliani et al., Anal. Biochem. 1996, 240, 60-67) contains a fluorescence donor, EDANS, near one end of the peptide and an acceptor, DABCYL, near the other end. The fluorescence of the peptide is quenched by […] resonance energy transfer (RET) between the donor and the acceptor, but as the NS3 protease cleaves the peptide the products are released from RET quenching and the fluorescence of the donor becomes apparent. The assay reagent was made as follows: 5× cell Luciferase cell culture lysis reagent from Promega (#E153A) diluted to 1× with dH2O, NaCl added to 150 mM final, the FRET peptide diluted to 20 uM final from a 2 mM stock.
To prepare plates, HCV replicon cells, with or without a Renilla luciferase reporter gene, were trypsinized and placed into each well of a 96-well plate with titrated test compounds added in columns 3 through 12; columns 1 and 2 contained a control compound (HCV protease inhibitor), and the bottom row contained cells without compound. The plates were then placed in a CO2 incubator at 37° C.
Assays. Subsequent to addition of the test compounds described above (FRET Assay Preparation), at various times the plate was removed and Alamar blue solution (Trek Diagnostics, #00-100) was added per well as a measure of cellular toxicity. After reading in a Cytoflour 4000 instrument (PE Biosystems), plates were rinsed with PBS and then used for FRET assay by the addition of 30 ul of the FRET peptide assay reagent described above (FRET Assay Preparation) per well. The plate was then placed into the Cytoflour 4000 instrument which had been set to 340 excite/490 emission, automatic mode for 20 cycles and the plate read in a kinetic mode. Typically, the signal to noise using an endpoint analysis after the reads was at least three-fold. Alternatively, after Alamar blue reading, plates were rinsed with PBS, 50 ul of DMEM (high glucose) without phenol red was added and plates were then used for luciferase assay using the Promega Dual-Glo Luciferase Assay System.
Compound analysis was determined by quantification of the relative HCV replicon inhibition and the relative cytotoxicity values. To calculate cytoxicity values, the average Alamar Blue fluorescence signals from the control wells were set as 100% non-toxic. The individual signals in each of the compound test wells were then divided by the average control signal and multiplied by 100% to determine […]. To calculate the HCV replicon inhibition values, an average background value was obtained from the two wells containing the highest amount of HCV protease inhibitor at the end of the assay period. These numbers were similar to those obtained from naïve Huh-7 cells.
The background numbers were then subtracted from the average signal obtained from the control wells and this number was used as 100% activity. The individual signals in each of the compound test wells were then divided by the averaged control values after background subtraction and multiplied by 100% to determine percent activity. EC50 values for a protease inhibitor titration were calculated as the concentration which caused a 50% reduction in FRET or luciferase activity. The two numbers generated for the compound plate, percent cytoxicity and percent activity were used to determine compounds of interest for further analysis.

T1 sequence (Q9WMX2 2420-2992): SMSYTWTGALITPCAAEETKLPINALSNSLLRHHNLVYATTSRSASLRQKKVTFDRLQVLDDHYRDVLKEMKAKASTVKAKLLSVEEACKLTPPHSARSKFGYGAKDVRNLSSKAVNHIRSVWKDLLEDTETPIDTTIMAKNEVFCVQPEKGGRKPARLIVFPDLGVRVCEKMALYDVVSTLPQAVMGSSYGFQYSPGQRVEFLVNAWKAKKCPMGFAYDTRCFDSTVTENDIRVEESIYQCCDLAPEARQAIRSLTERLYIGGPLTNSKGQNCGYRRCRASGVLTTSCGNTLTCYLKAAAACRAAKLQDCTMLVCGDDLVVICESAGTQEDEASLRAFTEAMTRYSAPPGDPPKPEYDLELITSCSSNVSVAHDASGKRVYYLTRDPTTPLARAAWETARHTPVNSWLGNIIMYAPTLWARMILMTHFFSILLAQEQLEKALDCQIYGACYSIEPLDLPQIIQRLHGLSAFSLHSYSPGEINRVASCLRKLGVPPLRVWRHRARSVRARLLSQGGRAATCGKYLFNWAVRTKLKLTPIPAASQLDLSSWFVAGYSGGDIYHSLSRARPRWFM

Row | SMILES | pIC50 [1] | pEC50 (HCV replicon cells; Hepatitis C virus) | pEC50 (HCV replicon cells)
1 | CCS(=O)(=O)C1Cc2ccccc2-c2c(C3CCCCC3)c3ccc(C(=O)NS(=O)(=O)N(C)C)cc3n2C1 (centres unmarked) | 6.00 to 7.70 | 6.00 to 7.70 | 
2 | COc1ccc2c(c1)C1CC1(S(=O)(=O)N1C3CC1CN(C)C3)Cn1c-2c(C2CCCCC2)c2ccc(C(=O)NS(=O)(=O)C3CC3)cc21 (centres unmarked) | 6.00 to 7.70 | 6.00 to 7.70 | 
3 | COc1ccc2c(c1)C1CC1(S(=O)(=O)N1C3CC1CN(C)C3)Cn1c-2c(C2CCCCC2)c2ccc(C(=O)NS(=O)(=O)N3CCOCC3)cc21 (centres unmarked) | 6.00 to 7.70 | 6.00 to 7.70 | 
4 | COc1ccc2c(c1)C1CC1(S(=O)(=O)N1CCC1)Cn1c-2c(C2CCCCC2)c2ccc(C(=O)NS(=O)(=O)N3CCOCC3)cc21 (centres unmarked) | 6.00 to 7.70 | 6.00 to 7.70 | 
5 | COc1ccc2c(c1)C1CC1(S(=O)(=O)N1C3CC1CN(C)C3)Cn1c-2c(C2CCCCC2)c2ccc(C(=O)NS(=O)(=O)C(C)C)cc21 (centres unmarked) | 6.00 to 7.70 | 6.00 to 7.70 | 
6 | COc1ccc2c(c1)C1CC1(S(=O)(=O)N1CCN3CCC1CC3)Cn1c-2c(C2CCCCC2)c2ccc(C(=O)NS(=O)(=O)C(C)C)cc21 (centres unmarked) | 6.00 to 7.70 | 6.00 to 7.70 | 
7 | COc1ccc2c(c1)C1CC1(S(=O)(=O)N1CCN3CCC1CC3)Cn1c-2c(C2CCCCC2)c2ccc(C(=O)NS(=O)(=O)N(C)C)cc21 (centres unmarked) | 6.00 to 7.70 | 6.00 to 7.70 | 
8 | CCN1CC2CC1CN2S(=O)(=O)C12CC1c1cc(OC)ccc1-c1c(C3CCCCC3)c3ccc(C(=O)NS(=O)(=O)C(C)C)cc3n1C2 (centres unmarked) | 6.00 to 7.70 | 6.00 to 7.70 | 
9 | CCN1CC2CC1CN2S(=O)(=O)C12CC1c1cc(OC)ccc1-c1c(C3CCCCC3)c3ccc(C(=O)NS(=O)(=O)N4CCOCC4)cc3n1C2 (centres unmarked) | 6.00 to 7.70 | 6.00 to 7.70 | 
10 | CCN1CC2CC1CN2S(=O)(=O)C12CC1c1cc(OC)ccc1-c1c(C3CCCCC3)c3ccc(C(=O)NS(=O)(=O)N(C)C)cc3n1C2 (centres unmarked) | 6.00 to 7.70 | 6.00 to 7.70 | 
11 | COC[C@@H]1CN(S(=O)(=O)C23CC2c2cc(OC)ccc2-c2c(C4CCCCC4)c4ccc(C(=O)NS(=O)(=O)C(C)C)cc4n2C3)CCO1 (some centres unmarked) | 6.00 to 7.70 | 6.00 to 7.70 | 
12 | COc1ccc2c(c1)C1CC1(S(=O)(=O)N1CCN3CCCC3C1)Cn1c-2c(C2CCCCC2)c2ccc(C(=O)NS(=O)(=O)N3CCOCC3)cc21 (centres unmarked) [drawing 64] | 6.00 to 7.70 | 6.00 to 7.70 | 
13 | COc1ccc2c(c1)C1CC1(S(=O)(=O)N1CCN3CCCC3C1)Cn1c-2c(C2CCCCC2)c2ccc(C(=O)NS(=O)(=O)N3CCOCC3)cc21 (centres unmarked) [drawing 65] | 6.00 to 7.70 |  | 6.00 to 7.70
